Test results taken from paper PMC11249953, “c-KIT inhibitors reduce pathology and improve behavior in the Tg(SwDI) model of Alzheimer’s disease” (Life Science Alliance, 2024).
Values joined by “and” are separate entries in the source; they are usually repeats but may differ in a detail not shown here. Identical values can stand only once.

Experiments:
KIT = biological target: T1, KIT (Homo sapiens, UniProt P10721); assay: KINOMEscan competition binding, KIT; details: 10 µM compound; for remaining binding at 10 µM: lower = stronger binding, read-out: KIT %Ctrl @ 10000nM (POC)
T1 construct: DNA label for qPCR read-out (T7 phage fusion or DNA tag); purchased Eurofins DiscoverX Corporation; host or cells: T7 phage in E. coli (BL21-derived) or HEK-293
Description: (§1) The KINOMEscan screening platform (Eurofins DiscoverX Corporation) was performed using active site-directed competition binding assay to quantitatively measure interactions between BK40143 and BK40197 and more than 450 human kinases and disease relevant mutant variants. […] Screening “hits” are identified by measuring the amount of kinase captured in test (BK40143 and BK40197) versus control samples by using a quantitative and ultra-sensitive qRT-PCR method that detects the associated DNA label. BK40143 and BK40197 were screened at 10 µM concentration, and results for primary screen binding interactions were reported as “% Ctrl” (POC), where lower numbers indicate stronger hits and calculated as follows: [test compound signal−positive control signal/negative control signal−positive control signal]×100
(§2) negative control = DMSO (100% Ctrl)
(§3) positive control = control compound (0% Ctrl)
(§4) Based on screening data from of profiled compounds, a proportional relationship between primary screening results and corresponding compound/target affinities can be described as binding constants (Kd values) for the indicated ranges of POC values with tighter binding (higher affinity) interactions associated with lower POC values and weaker binding (lower affinity) associated with higher POC values. Briefly, kinase-tagged T7 phage strains were grown in parallel in 24-well blocks in an E. coli host derived from the BL21 strain. E. coli were grown to log-phase and infected with T7 phage from a frozen stock (multiplicity of infection = 0.4) and incubated with shaking at 32°C until lysis (90–150 min). The lysates were centrifuged (6,000g) and filtered (0.2 μm) to remove cell debris. The remaining kinases were produced in HEK-293 cells and subsequently tagged with DNA for qRT-PCR detection. Streptavidin-coated magnetic beads were treated with biotinylated small molecule ligands for 30 min at RT to generate affinity resins for kinase assays. The liganded beads were blocked with excess biotin and washed with blocking buffer (1% BSA, 0.05% Tween 20, 1 mM DTT; SeaBlock [Pierce]) to remove unbound ligand and to reduce non-specific phage binding. Binding reactions were assembled by combining kinases, liganded affinity beads, and test compounds in 1x binding buffer (20% 0.17x PBS, 0.05% Tween 20, 6 mM DTT; SeaBlock). Test compounds were prepared as 100x stocks in 100% DMSO and directly diluted into the assay. All reactions were performed in polypropylene 384-well plates in a final volume of 0.02 ml. The assay plates were incubated at RT with shaking for 1 h and the affinity beads were washed with wash buffer (1x PBS, 0.05% Tween 20). […] The kinase concentration in the eluates was measured by qRT-PCR.

PDGFRb = biological target: T2, PDGFRb (Homo sapiens, UniProt P09619); assay: KINOMEscan competition binding, PDGFRb; details: 10 µM compound; for remaining binding at 10 µM: lower = stronger binding, read-out: PDGFRb %Ctrl @ 10000nM (POC)
T2 construct: DNA label for qPCR read-out (T7 phage fusion or DNA tag); purchased Eurofins DiscoverX Corporation; host or cells: T7 phage in E. coli (BL21-derived) or HEK-293
Description: as §1, §2, §3, §4

PDGFRa = biological target: T3, PDGFRa (Homo sapiens, UniProt P16234); assay: KINOMEscan competition binding, PDGFRa; details: 10 µM compound; for remaining binding at 10 µM: lower = stronger binding, read-out: PDGFRa %Ctrl @ 10000nM (POC)
T3 construct: DNA label for qPCR read-out (T7 phage fusion or DNA tag); purchased Eurofins DiscoverX Corporation; host or cells: T7 phage in E. coli (BL21-derived) or HEK-293
Description: as §1, §2, §3, §4

beclin-1 in TgAPP mice = assay: Western blot for beclin-1 in brain; type: in vivo, mouse; details: BK40143 5 mg/kg, BK40197 45 mg/kg, vs DMSO
Description: Brain hemispheres from treated and untreated animals were lysed in 1x STEN buffer and protein concentrations were measured via BCA assay. Samples were normalized to 1 μg/μl and added to 2x Laemmli loading buffer + β-mercaptoethanol and boiled for 10 min to denature the protein. 15 μg of sample were then loaded in 4–12% Bis–Tris gels with MES buffer and electrophoresed, before transfer to a nitrocellulose membrane, where they were blocked with 5% dry milk in 1x TBST and incubated overnight with an anti-Beclin-1 primary antibody (cat. #3739S; Cell Signaling) or a phospho-c-KIT antibody (cat. #44-496G; Invitrogen). The next day, the membrane was washed and treated for 1 h with a goat anti-rabbit HRP-linked secondary followed by SuperSignal West Dura Extended Duration Substrate (cat. #37071; Thermo Fisher Scientific) and imaged on an Amersham Imager 600. This procedure was repeated the next day with an anti-mouse actin primary as a loading control.

[1] = system: IBA1+ microglia of TgAPP mice; assay: IBA1 staining and microglial morphological analysis (Imaris); type: in vivo, mouse; details: BK40143 5 mg/kg, BK40197 45 mg/kg, vs DMSO
Description: Staining for amyloid-beta and microglia was performed on left brain hemispheres collected from treated and untreated mice. Brains were cryoprotected with 30% sucrose and sectioned at 30 μm on a cryostat. Sections were then treated with an anti-amyloid beta (6E10, cat. #803001; BioLegend) or anti-IBA1 (cat. # 018-28523; Wako Chemicals) primary followed by either an AlexaFluor secondary (Thermo Fisher Scientific) and DAPI mounting medium (Vector Labs) or a biotinylated secondary and 3, 3′ diaminobenzidine chromogen substrate. Slides were imaged on either a Leica DMi8 light microscope or a Zeiss LSM 800 confocal microscope.
63x z-stack images (0.19 μm intervals) of IBA1 stained microglia from treated and untreated mice were collected on a Zeiss LSM confocal microscope. 3D images were then analyzed using the “surfaces” plug-in in Imaris 10.0 to ascertain cell-surface area. Individual microglial surface areas were calculated in the advanced statistics tab of Imaris.

mice = assay: Nesting, source data sheets Nesting (mouse line not given); type: in vivo; parameters: key to Nesting Score AVG (of three observers) / Nesting Score AVG, group mean / Nesting Score / Nesting Score AVG: 0 = nestlet untouched to 5 = near perfect nest; key to Nesting Score (NICK) / Nesting Score (MICHAELINE) / Nesting Score(MAX) / Nesting Score (KORLISS): 0: nestlet untouched; 1: nestlet hardly touched (more than 90% intact); 2: nestlet partially torn (50–90% intact); 3: mostly shredded but no identifiable nest, less than 50% intact but less than 90% in a single quarter of the cage; 4: An identifiable but flat nest, more than 90% torn and material is gathered in a single quarter of the cage; 5: A near perfect nest, more than 90% of the nestlet is torn and the nest is a crater, with walls higher than the mouse body height; details: for Nesting Score (MICHAELINE): observer MICHAELINE; for Nesting Score (NICK): observer NICK
Description: Mice were singly housed in standard cages overnight (6 pm–6 am) with a 3-gram cloth nestlet and allowed to freely behave. The next day, nestlets were weighed and photographed, and amount of nestlet shredding was recorded by three observers based on the following scale: 0—nestlet untouched, 1—nestlet hardly touched (more than 90% intact), 2—nestlet partially torn (50–90% intact), 3—mostly shredded but no identifiable nest, less than 50% intact but less than 90% in a single quarter of the cage, 4—An identifiable but flat nest, more than 90% torn and material is gathered in a single quarter of the cage, 5—A near perfect nest, more than 90% of the nestlet is torn and the nest is a crater, with walls higher than the mouse body height.

[2] = 2.5mg/kg, individual mice, listed as 143
[3] = 5.0mg/kg, individual mice, listed as 143

T2 sequence (P09619 33-1106): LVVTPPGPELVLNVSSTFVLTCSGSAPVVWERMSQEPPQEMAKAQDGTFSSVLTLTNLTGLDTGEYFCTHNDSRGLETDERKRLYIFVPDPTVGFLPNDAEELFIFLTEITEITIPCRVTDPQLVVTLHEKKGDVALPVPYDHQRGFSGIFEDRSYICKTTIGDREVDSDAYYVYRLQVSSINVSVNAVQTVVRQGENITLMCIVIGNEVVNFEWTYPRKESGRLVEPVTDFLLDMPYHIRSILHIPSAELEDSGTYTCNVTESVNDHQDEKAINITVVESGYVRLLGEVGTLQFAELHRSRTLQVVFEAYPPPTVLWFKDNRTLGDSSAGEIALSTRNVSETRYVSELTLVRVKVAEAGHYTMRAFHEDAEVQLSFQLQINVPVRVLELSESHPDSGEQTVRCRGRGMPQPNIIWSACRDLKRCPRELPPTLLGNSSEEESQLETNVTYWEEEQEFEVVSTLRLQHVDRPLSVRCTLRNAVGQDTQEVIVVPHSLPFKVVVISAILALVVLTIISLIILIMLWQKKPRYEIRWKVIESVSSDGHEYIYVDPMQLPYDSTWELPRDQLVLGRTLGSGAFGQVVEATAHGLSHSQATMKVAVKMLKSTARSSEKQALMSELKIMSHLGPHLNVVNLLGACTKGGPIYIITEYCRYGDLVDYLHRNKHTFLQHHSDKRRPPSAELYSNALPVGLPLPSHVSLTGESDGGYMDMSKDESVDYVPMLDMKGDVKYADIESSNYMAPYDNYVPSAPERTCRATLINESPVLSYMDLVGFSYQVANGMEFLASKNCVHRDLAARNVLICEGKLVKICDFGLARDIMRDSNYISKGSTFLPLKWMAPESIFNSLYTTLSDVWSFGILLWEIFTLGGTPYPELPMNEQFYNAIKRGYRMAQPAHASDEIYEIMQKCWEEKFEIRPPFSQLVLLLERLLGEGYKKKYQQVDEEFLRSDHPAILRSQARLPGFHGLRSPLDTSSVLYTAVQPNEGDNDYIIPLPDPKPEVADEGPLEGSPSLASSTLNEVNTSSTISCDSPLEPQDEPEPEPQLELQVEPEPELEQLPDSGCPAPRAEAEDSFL
T1 sequence (P10721 26-976): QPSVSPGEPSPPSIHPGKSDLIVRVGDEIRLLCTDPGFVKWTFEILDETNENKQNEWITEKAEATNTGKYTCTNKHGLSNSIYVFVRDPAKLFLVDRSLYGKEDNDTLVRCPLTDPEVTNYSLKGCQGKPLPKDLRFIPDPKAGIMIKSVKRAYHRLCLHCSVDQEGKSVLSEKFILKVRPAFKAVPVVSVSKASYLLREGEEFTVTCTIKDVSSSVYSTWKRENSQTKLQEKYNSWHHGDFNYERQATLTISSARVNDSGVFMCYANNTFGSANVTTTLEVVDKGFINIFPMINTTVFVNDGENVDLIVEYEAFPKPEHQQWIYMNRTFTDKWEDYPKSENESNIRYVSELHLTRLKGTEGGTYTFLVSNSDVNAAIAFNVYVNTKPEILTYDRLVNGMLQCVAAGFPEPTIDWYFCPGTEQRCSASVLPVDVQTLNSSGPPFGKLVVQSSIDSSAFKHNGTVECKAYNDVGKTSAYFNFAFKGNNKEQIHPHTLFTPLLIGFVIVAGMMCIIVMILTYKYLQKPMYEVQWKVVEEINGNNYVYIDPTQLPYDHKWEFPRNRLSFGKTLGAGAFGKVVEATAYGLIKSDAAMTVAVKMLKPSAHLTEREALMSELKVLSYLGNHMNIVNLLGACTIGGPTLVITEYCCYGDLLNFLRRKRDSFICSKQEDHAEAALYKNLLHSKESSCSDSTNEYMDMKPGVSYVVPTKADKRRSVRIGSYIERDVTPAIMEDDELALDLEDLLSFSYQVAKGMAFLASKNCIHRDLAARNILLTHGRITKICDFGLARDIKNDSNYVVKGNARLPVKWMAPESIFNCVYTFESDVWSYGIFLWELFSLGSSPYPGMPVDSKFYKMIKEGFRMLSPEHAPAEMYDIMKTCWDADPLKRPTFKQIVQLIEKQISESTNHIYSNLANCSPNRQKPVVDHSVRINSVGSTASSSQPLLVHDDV
T3 sequence (P16234 24-1089): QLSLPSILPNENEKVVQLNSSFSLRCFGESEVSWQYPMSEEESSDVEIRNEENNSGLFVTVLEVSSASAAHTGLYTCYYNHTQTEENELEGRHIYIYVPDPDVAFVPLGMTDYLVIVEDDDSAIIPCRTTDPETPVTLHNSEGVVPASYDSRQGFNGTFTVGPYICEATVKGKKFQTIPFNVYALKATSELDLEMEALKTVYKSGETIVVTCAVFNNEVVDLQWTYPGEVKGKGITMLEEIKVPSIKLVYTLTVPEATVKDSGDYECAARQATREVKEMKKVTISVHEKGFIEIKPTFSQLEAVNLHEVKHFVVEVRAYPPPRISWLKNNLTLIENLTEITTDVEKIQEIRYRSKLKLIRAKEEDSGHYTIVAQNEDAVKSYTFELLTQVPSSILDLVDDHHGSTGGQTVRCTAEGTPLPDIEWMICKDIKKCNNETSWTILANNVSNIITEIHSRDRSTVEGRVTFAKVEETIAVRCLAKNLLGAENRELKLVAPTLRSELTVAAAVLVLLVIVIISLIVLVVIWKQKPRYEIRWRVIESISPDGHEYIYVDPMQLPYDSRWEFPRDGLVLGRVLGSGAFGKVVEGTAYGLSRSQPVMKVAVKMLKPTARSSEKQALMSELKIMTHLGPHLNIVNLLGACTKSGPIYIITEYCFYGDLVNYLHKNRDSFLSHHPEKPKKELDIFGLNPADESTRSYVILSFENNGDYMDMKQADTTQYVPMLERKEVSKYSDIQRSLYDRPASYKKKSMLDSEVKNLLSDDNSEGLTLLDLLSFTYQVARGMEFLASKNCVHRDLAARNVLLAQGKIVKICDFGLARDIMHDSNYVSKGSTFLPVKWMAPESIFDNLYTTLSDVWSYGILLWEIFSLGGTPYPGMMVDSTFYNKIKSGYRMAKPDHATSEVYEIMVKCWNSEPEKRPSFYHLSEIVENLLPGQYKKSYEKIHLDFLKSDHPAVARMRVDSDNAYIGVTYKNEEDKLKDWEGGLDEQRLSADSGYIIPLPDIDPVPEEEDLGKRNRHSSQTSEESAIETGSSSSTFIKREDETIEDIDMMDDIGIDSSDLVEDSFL

Row | Structure (SMILES) | inhibition at 10 µM (KIT) | remaining binding at 10 µM (KIT) | inhibition at 10 µM (PDGFRb) | remaining binding at 10 µM (PDGFRb) | inhibition at 10 µM (PDGFRa) | remaining binding at 10 µM (PDGFRa) | beclin-1 levels in brain (Western blot) (beclin-1 in TgAPP mice) | microglial activation (IBA1 staining) [1] | surface area of microglia (Imaris) [1] | also measured
1 | Cc1cccc(-c2cc3nccc(Nc4ccccc4)c3s2)c1 [BK40143] | 100% | 0% | 99.9% | 0.1% | 98.1% | 1 to 10% | significant increases in levels of beclin-1 | significant reduction in microglial activation | significantly reduced surface area of microglia | Nesting Score AVG, group mean (mice; 2.5mg/kg): 0.9048; Nesting Score AVG (of three observers) (mice; [2]): 0 and 1.333 and 2.667 and 1; Nestlet Weight (mice; 2.5mg/kg, individual mice, listed as 143, in g (unit assumed)): 2.6 and 2.8 and 2.7 and 0.9 and 2.5; Nesting Score(MAX) (mice; 2.5mg/kg, observer MAX, individual mice, listed as 143): 0 and 2 (nestlet partially torn (50–90% intact)) and 3 (mostly shredded but no identifiable nest, less than 50% intact but less than 90% in a single quarter of the cage) and 1 (nestlet hardly touched (more than 90% intact)); Nesting Score (MICHAELINE) (mice; [2]): 0 and 1 (nestlet hardly touched (more than 90% intact)) and 2 (nestlet partially torn (50–90% intact)); Nesting Score (NICK) (mice; [2]): 0 and 1 (nestlet hardly touched (more than 90% intact)) and 3 (mostly shredded but no identifiable nest, less than 50% intact but less than 90% in a single quarter of the cage); Nesting Score AVG, group mean (mice; 5.0mg/kg): 1.067; Nesting Score AVG (of three observers) (mice; [3]): 1.333 and 0.3333 and 1 and 2 and 0.6667 and 3.667 and 0; Nestlet Weight (mice; 5.0mg/kg, individual mice, listed as 143, in g (unit assumed)): 2.5 and 2.7 and 2.1 and 2.6 and 2.9 and 0; Nesting Score(MAX) (mice; 5.0mg/kg, observer MAX, individual mice, listed as 143): 2 (nestlet partially torn (50–90% intact)) and 1 (nestlet hardly touched (more than 90% intact)) and 4 and 0; Nesting Score (MICHAELINE) (mice; [3]): 1 (nestlet hardly touched (more than 90% intact)) and 0 and 2 (nestlet partially torn (50–90% intact)) and 3 (mostly shredded but no identifiable nest, less than 50% intact but less than 90% in a single quarter of the cage); Nesting Score (NICK) (mice; [3]): 1 (nestlet hardly touched (more than 90% intact)) and 0 and 2 (nestlet partially torn (50–90% intact)) and 4
2 | Cc1cccc(-c2cc3nccc(N4CCOCC4)c3s2)c1 [BK40197] | 99.7% | 0.3% | 98.7% | 1.3% | 74% | 26% | significant increases in levels of beclin-1 | significant reduction in microglial activation | significantly reduced surface area of microglia | Nesting Score (mice; average score of the raters listed by treatment group, one value per mouse, listed as 197): 2 and 1 and 0.5 and 0 and 3; Nesting Score AVG (mice; nesting, average of the raters, one value per mouse, listed as 197): 2 and 1 and 3 and 0.5 and 0; Nesting Score (KORLISS) (mice; nesting, rater KORLISS, one value per mouse, listed as 197): 2 (nestlet partially torn (50–90% intact)) and 1 (nestlet hardly touched (more than 90% intact)) and 4 and 0; Nesting Score(MAX) (mice; nesting, rater MAX, one value per mouse, listed as 197): 2 (nestlet partially torn (50–90% intact)) and 1 (nestlet hardly touched (more than 90% intact)) and 0; Weight (mice; nestlet weight listed by treatment group, one value per mouse, listed as 197, in g (unit assumed)): 2.1 and 2.8 and 2.5 and 2.6 and 2.9 and 1.7
